Among the data in patent US11596639B2, “Substituted indole Mcl-1 inhibitors” (Vanderbilt University, priority 2016, dated 2023) are GI50 and Ki values, retold here.

By Ki is commonly meant the dissociation constant of the complex between target and ligand, obtained from inhibition or displacement.

The test system of assay [1] is H929 human cancer cell lines. Kind of assay: Cellular viability / proliferation (Cell TiterGlo, 72 h). The format is cell-based. Put shortly: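 Cells were seeded at 1,000 cells/well in medium with 10% FBS and dosed 24 h later with a 2-fold serial dilution of compound (top concentration 50 μM, final DMSO <1%).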
Background: Cellular ATP, detected with luciferase, serves as a proxy for viable cell number.

Assay [2] concerns the target Mcl-1 (Homo sapiens (Human), UniProt Q07820). Put plainly: Fluorescence polarization anisotropy (FPA) competition assay, FITC-Bak or FITC-Bim BH3 peptide. The format is binding. The settings on record: read-out: Ki for Inhibition of Mcl-1 by FPA assay. On the technique in general: In fluorescence polarisation assays a small probe gives low polarisation when free and higher when bound to something large.

Where [3] appears, read: Homo sapiens, NCI-H929, 72 h, read-out: GI50 on cellular proliferation of H929 human cancer cell lines, H929 cells, 72 h, Cell TiterGlo, 10% FBS.
The mark [4] stands for this setting: read-out: GI50 on cellular proliferation of H929 human cancer cell lines, H929 cells, 72 h, Cell TiterGlo, 10% FBS.

Molecules are shown by their SMILES. Like-named read-outs stand apart in the source and are kept apart here.

Sequence of Mcl-1 (Q07820 172-327): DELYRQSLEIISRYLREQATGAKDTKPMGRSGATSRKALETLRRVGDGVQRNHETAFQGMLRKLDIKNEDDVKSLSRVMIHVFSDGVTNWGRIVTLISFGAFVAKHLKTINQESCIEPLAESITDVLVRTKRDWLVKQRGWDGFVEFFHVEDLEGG

As to `CCn1ncc2c(C(=O)O)cc(N3CCCn4c(c(CCCOc5cc(C)c(Cl)c(C)c5)c5ccc(Cl)c(-c6c(C)nn(C)c6C)c54)C3=O)cc21` [Example 39, 6-[8-chloro-11-[3-(4-chloro-3,5-dimethyl-phenoxy)propyl]-1-oxo-7-(1,3,5-trimethylpyrazol-4-yl)-4,5-dihydro-3H-[1,4]diazepino[1,2-a]indol-2-yl]-1-ethyl-indazole-4-carboxylic acid], the GI50 in assay [1] (setting [3]) is 920 nM. The Ki in assay [2] came out at 1.1 nM.
Consider `Cc1cc(OCCCc2c3n(c4c(-c5c(C)ncnc5C)c(Cl)ccc24)CCCN(c2cccc4cc(C(=O)O)n(C)c24)C3=O)cc(C)c1Cl` [Example 219, 7-[8-Chloro-11-[3-(4-chloro-3,5-dimethyl-phenoxy)propyl]-7-(4,6-dimethylpyrimidin-5-yl)-1-oxo-4,5-dihydro-3H-[1,4]diazepino[1,2-a]indol-2-yl]-1-methyl-indole-2-carboxylic acid], for which the GI50 in assay [1] (setting [3]) amounted to 1200 nM. The Ki in assay [2] amounted to 2.2 nM.
As for `Cc1cc(OCCCc2c3n(c4c(-c5c(C)nn(C)c5C)c(Cl)ccc24)[C@H](C)CN(c2cn(C)c4ccc(C(=O)Nc5ccccn5)cc24)C3=O)cc(C)c1Cl` [Example 280, 3-[(4R)-7-chloro-10-[3-(4-chloro-3,5-dimethyl-phenoxy)propyl]-4-methyl-1-oxo-6-(1,3,5-trimethylpyrazol-4-yl)-3,4-dihydropyrazino[1,2-a]indol-2-yl]-1-methyl-N-(2-pyridyl)indole-5-carboxamide], the GI50 in assay [1] (setting [3]) turned out to be 2200 nM. The Ki in assay [2] came out at 1.5 nM.
As for `Cc1cc(OCCCc2c3n(c4c(-c5c(C)nc(CN6CCN(C)C(=O)C6)nc5C)c(Cl)ccc24)[C@H](C)CN(c2cn(C)c4ccc(C(=O)O)cc24)C3=O)cc(C)c1Cl` [Example 432, (R)-3-(7-Chloro-10-(3-(4-chloro-3,5-dimethylphenoxy)propyl)-6-(4,6-dimethyl-2-((4-methyl-3-oxopiperazin-1-yl)methyl)pyrimidin-5-yl)-4-methyl-1-oxo-3,4-dihydropyrazino[1,2-a]indol-2(1H)-yl)-1-methyl-1H-indole-5-carboxylic acid], the GI50 in assay [1] (setting [3]) came to 210 nM. For the same molecule, the Ki in assay [2] is less than 1 nM.
In the case of `Cc1cc(OCCCc2c3n(c4c(-c5c(C)nn(C)c5C)c(Cl)ccc24)[C@H](C)CN(c2cn(C)c4ccc(S(=O)(=O)N5CCNCC5)cc24)C3=O)cc(C)c1Cl` [Example 265, (R)-7-chloro-10-(3-(4-chloro-3,5-dimethylphenoxy)propyl)-4-methyl-2-(1-methyl-5-(piperazin-1-ylsulfonyl)-1H-indol-3-yl)-6-(1,3,5-trimethyl-1H-pyrazol-4-yl)-3,4-dihydropyrazino[1,2-a]indol-1(2H)-one], the GI50 in assay [1] (setting [3]) turned out to be 1500 nM. Further, the Ki in assay [2] was 8.2 nM.
For `COC(=O)c1ccc2c(c1)c(N1C[C@@H](C)n3c(c(CCCOc4cc(C)c(Cl)c(C)c4)c4ccc(Cl)c(-c5c(C)nn(C)c5C)c43)C1=O)cn2C` (single isomer, unassigned) [Example 204], in that order: 1000 nM and 1.1 nM.
The matching figures for `Cc1cc(OCCCc2c3n(c4c(-c5c(C)ncnc5C)c(Cl)ccc24)CCCN(c2cc(C(=O)O)cc4c2OCCO4)C3=O)cc(C)c1Cl` [Example 154, 5-[8-Chloro-11-[3-(4-chloro-3,5-dimethyl-phenoxy)propyl]-7-(4,6-dimethylpyrimidin-5-yl)-1-oxo-4,5-dihydro-3H-[1,4]diazepino[1,2-a]indol-2-yl]-2,3-dihydro-1,4-benzodioxine-7-carboxylic acid]: 1300 nM and less than 1 nM.
For `Cc1cc(OCCCc2c3n(c4c(-c5c(C)n[nH]c5C)c(Cl)ccc24)[C@H](C)CN(c2cn(C)c4cc(C(=O)O)ccc24)C3=O)cc(C)c1Cl` [Example 109, (R)-3-(7-chloro-10-(3-(4-chloro-3,5-dimethylphenoxy)propyl)-6-(3,5-dimethyl-1H-pyrazol-4-yl)-4-methyl-1-oxo-3,4-dihydropyrazino[1,2-a]indol-2(1H)-yl)-1-methyl-1H-indole-6-carboxylic acid], in that order: 710 nM and less than 1 nM.
With `Cc1cc(OCCCc2c3n(c4c(-c5c(C)nn(C)c5C)c(Cl)ccc24)[C@H](C)CN(c2cccc4c2cc(-c2nnco2)n4C)C3=O)cc(C)c1Cl` [Example 347, (R)-7-Chloro-10-(3-(4-chloro-3,5-dimethylphenoxy)propyl)-4-methyl-2-(1-methyl-2-(1,3,4-oxadiazol-2-yl)-1H-indol-4-yl)-6-(1,3,5-trimethyl-1H-pyrazol-4-yl)-3,4-dihydropyrazino[1,2-a]indol-1(2H)-one], the GI50 in assay [1] (setting [3]) came to 1900 nM. In addition, the Ki in assay [2] was 3.6 nM.
As for `Cc1cc(OCCCc2c3n(c4c(-c5c(C)nn(C)c5C)c(Cl)ccc24)[C@H](C)CN(c2nn(C)c4cccc(C(=O)O)c24)C3=O)cc(C)c1Cl` [Example 179, (R)-3-(7-Chloro-10-(3-(4-chloro-3,5-dimethylphenoxy)propyl)-4-methyl-1-oxo-6-(1,3,5-trimethyl-1H-pyrazol-4-yl)-3,4-dihydropyrazino[1,2-a]indol-2(1H)-yl)-1-methyl-1H-indazole-4-carboxylic acid], in assay [1] (setting [4]), the GI50 turned out to be 4700 nM. Besides, in assay [2], the Ki is less than 1 nM.
Regarding `Cc1cc(OCCCc2c3n(c4c(-c5c(C)nn(C)c5C)c(Cl)ccc24)[C@H](C)CN(c2cccc4c2c(C(=O)O)nn4C)C3=O)cc(C)c1Cl` [Example 126, 4-[(4R)-7-chloro-10-[3-(4-chloro-3,5-dimethyl-phenoxy)propyl]-4-methyl-1-oxo-6-(1,3,5-trimethylpyrazol-4-yl)-3,4-dihydropyrazino[1,2-a]indol-2-yl]-1-methyl-indazole-3-carboxylic acid], the GI50 in assay [1] (setting [4]) amounted to 5100 nM. In addition, in assay [2], the Ki is less than 1 nM.
`Cc1cc(OCCCc2c3n(c4c(-c5c(C)nn(C)c5C)c(Cl)ccc24)[C@H](C)CN(c2cc(C(=O)O)cc4c2OCO4)C3=O)cc(C)c1Cl` [Example 33, (R)-7-(7-chloro-10-(3-(4-chloro-3,5-dimethylphenoxy)propyl)-4-methyl-1-oxo-6-(1,3,5-trimethyl-1H-pyrazol-4-yl)-3,4-dihydropyrazino[1,2-a]indol-2(1H)-yl)benzo[d][1,3]dioxole-5-carboxylic acid]: the GI50 in assay [1] (setting [3]) was 650 nM. For the same molecule, in assay [2], the Ki is less than 1 nM.
The matching figures for `Cc1cc(OCCCc2c3n(c4c(-c5c(C)nn(C)c5C)c(Cl)ccc24)[C@H](C)CN(c2ccc4c(c2)c(C(=O)O)cn4C)C3=O)cc(C)c1Cl` [Example 171, (R)-5-(7-Chloro-10-(3-(4-chloro-3,5-dimethylphenoxy)propyl)-4-methyl-1-oxo-6-(1,3,5-trimethyl-1H-pyrazol-4-yl)-3,4-dihydropyrazino[1,2-a]indol-2(1H)-yl)-1-methyl-1H-indole-3-carboxylic acid]: 1500 nM and less than 1 nM.
The matching figures for `Cc1cc(OCCCc2c3n(c4c(-c5c(C)ncnc5C)c(Cl)ccc24)CCCN(c2cccc4cc(C(=O)O)n(Cc5ccccn5)c24)C3=O)cc(C)c1Cl` [Example 279, 7-(8-Chloro-11-(3-(4-chloro-3,5-dimethylphenoxy)propyl)-7-(4,6-dimethylpyrimidin-5-yl)-1-oxo-4,5-dihydro-1H-[1,4]diazepino[1,2-a]indol-2(3H)-yl)-1-(pyridin-2-ylmethyl)-1H-indole-2-carboxylic acid]: 3300 nM and 1 nM.
